EP4745135A1 (Gluetacs Therapeutics (Shanghai) Co., Ltd., priority 2023, dated 2025)

Legend:
CK1α = target: T1, CK1α (Homo sapiens, UniProt P48729+Q96SW2); test: Western blot, degradation of substrate protein in hPBMCs; type: cell-based
T1 construct: effects of the compounds of the present disclosure on the expression of target proteins in cells; endogenous in cells; host or cells: human PBMCs (Milecell Biotechnologies)

IKZF1 = target: T2, IKZF1 (Homo sapiens, UniProt Q13422+Q96SW2); test: as above; type: cell-based
T2 construct: effects of the compounds of the present disclosure on the expression of target proteins in cells; endogenous in cells; host or cells: human PBMCs (Milecell Biotechnologies)
T2 sequence (Q13422 whole entry): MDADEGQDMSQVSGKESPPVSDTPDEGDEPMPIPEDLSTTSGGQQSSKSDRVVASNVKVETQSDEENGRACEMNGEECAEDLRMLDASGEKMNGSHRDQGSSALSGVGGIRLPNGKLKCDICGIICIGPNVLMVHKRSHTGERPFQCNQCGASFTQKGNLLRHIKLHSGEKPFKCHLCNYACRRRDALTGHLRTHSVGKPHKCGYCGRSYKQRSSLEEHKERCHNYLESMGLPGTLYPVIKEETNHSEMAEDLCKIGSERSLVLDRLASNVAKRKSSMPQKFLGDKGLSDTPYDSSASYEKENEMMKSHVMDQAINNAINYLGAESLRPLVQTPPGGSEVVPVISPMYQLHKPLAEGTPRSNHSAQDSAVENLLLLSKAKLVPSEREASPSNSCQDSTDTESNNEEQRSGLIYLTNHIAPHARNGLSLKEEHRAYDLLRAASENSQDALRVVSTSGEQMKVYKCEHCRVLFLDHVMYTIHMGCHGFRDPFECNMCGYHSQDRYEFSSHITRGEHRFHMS
T2 sequence (Q96SW2 whole entry): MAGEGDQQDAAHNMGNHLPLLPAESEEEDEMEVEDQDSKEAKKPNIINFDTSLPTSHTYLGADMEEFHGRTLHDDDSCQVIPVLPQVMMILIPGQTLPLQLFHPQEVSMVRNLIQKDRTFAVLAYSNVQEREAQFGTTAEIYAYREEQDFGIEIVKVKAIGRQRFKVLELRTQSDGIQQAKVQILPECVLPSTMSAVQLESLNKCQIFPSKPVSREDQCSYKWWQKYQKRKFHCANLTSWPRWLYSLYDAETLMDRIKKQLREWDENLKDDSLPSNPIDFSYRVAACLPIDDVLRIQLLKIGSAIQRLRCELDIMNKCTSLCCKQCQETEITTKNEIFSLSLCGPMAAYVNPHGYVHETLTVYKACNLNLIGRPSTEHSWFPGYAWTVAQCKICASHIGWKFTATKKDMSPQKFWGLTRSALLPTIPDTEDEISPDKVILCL
T2 sequence (Q16531 whole entry partner): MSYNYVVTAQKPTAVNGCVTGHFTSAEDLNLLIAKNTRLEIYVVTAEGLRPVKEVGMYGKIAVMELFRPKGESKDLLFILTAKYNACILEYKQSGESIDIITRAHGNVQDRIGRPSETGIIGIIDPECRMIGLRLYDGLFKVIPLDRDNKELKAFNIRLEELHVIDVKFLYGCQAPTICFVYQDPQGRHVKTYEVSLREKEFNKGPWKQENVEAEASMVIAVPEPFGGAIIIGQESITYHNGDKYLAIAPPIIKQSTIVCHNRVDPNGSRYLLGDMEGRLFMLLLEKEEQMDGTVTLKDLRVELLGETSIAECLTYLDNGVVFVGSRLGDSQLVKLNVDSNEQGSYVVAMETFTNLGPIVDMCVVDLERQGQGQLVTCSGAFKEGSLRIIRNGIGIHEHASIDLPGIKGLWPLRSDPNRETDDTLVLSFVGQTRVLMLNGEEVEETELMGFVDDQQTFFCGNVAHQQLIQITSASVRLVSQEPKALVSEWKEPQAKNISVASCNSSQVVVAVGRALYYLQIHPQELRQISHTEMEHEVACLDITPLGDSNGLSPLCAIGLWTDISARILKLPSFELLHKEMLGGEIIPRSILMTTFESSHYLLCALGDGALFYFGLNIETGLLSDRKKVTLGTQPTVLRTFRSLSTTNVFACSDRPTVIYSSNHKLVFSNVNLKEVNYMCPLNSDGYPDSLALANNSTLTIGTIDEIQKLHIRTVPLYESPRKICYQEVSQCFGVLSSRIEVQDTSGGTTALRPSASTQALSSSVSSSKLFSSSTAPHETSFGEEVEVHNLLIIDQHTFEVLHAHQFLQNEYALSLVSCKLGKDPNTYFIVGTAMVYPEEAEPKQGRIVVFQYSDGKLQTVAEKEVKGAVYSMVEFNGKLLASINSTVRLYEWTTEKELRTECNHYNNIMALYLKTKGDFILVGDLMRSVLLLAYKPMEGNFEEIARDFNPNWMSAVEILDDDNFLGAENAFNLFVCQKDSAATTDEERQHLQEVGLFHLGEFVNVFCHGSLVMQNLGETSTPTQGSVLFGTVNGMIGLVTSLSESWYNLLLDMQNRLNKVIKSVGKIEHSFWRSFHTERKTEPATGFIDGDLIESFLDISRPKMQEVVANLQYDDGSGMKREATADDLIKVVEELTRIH

IKZF2 = target: T3, IKZF2 (Homo sapiens, UniProt Q96SW2+Q9UKS7); test: as above; type: cell-based
T3 construct: effects of the compounds of the present disclosure on the expression of target proteins in cells; endogenous in cells; host or cells: human PBMCs (Milecell Biotechnologies)
T3 sequence (Q9UKS7 whole entry): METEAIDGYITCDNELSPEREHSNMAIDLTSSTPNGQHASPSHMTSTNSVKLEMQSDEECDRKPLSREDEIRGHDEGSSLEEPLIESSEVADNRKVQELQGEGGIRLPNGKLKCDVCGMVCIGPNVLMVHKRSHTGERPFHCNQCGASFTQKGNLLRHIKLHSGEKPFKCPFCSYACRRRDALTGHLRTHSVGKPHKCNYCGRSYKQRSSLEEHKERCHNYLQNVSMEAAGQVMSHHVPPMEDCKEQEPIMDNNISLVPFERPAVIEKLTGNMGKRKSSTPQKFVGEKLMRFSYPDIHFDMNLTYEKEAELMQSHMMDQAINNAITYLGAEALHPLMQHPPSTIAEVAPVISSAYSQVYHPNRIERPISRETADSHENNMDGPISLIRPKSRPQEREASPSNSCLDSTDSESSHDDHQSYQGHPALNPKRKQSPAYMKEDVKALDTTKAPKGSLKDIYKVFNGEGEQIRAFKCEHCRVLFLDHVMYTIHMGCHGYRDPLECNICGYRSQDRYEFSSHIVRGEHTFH
T3 sequence (Q96SW2 whole entry): as the sequence (Q96SW2 whole entry) above
T3 sequence (Q16531 whole entry partner): as the sequence (Q16531 whole entry partner) above

IKZF3 = target: T4, IKZF3 (Homo sapiens, UniProt Q96SW2+Q9UKT9); test: as above; type: cell-based
T4 construct: effects of the compounds of the present disclosure on the expression of target proteins in cells; endogenous in cells; host or cells: human PBMCs (Milecell Biotechnologies)
T4 sequence (Q9UKT9 whole entry): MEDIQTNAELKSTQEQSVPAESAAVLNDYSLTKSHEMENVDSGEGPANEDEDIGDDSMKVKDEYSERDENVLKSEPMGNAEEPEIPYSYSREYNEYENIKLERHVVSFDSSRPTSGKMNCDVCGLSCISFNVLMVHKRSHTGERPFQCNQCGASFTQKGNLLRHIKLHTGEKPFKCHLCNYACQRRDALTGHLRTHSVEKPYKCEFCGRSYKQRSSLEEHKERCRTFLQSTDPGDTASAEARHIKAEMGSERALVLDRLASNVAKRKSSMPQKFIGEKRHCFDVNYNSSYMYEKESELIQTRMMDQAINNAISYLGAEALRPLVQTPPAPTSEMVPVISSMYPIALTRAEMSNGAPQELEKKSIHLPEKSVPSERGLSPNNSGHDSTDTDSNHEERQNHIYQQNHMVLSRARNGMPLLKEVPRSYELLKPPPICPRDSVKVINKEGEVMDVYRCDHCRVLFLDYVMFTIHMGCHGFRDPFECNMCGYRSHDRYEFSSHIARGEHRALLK
T4 sequence (Q96SW2 whole entry): as the sequence (Q96SW2 whole entry) above
T4 sequence (Q16531 whole entry partner): as the sequence (Q16531 whole entry partner) above

WEE1 = target: T5, WEE1 (Homo sapiens, UniProt P30291+Q96SW2); test: as above; type: cell-based
T5 construct: effects of the compounds of the present disclosure on the expression of target proteins in cells; endogenous in cells; host or cells: human PBMCs (Milecell Biotechnologies)
T5 sequence (P30291 whole entry): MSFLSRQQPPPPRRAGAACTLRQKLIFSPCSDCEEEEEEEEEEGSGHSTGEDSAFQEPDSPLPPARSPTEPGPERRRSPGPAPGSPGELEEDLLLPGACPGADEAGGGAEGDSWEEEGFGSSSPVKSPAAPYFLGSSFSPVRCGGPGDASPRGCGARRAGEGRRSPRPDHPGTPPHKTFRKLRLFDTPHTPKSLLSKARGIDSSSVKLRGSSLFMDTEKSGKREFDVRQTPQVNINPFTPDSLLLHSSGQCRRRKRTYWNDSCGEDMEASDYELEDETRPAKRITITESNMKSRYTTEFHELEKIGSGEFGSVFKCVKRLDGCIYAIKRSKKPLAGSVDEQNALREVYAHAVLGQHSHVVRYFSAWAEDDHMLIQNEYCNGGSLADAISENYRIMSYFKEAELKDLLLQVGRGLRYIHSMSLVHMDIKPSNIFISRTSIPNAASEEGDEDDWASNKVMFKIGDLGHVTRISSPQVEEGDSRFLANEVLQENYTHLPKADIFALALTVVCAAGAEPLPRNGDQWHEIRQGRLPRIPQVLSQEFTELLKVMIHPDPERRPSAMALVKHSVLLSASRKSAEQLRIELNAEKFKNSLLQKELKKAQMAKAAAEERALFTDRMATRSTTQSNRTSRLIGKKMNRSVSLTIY
T5 sequence (Q96SW2 whole entry): as the sequence (Q96SW2 whole entry) above
T5 sequence (Q16531 whole entry partner): as the sequence (Q16531 whole entry partner) above

GSPT1 = test: as above; type: cell-based, Human
[1] = target: T6, human Cereblon WT GST-tagged protein (Homo sapiens, UniProt Q96SW2); test: CRBN-binding affinity, HTRF (CEREBLON BINDING kit); conditions: for inhibition at 0.5 µM: read-out: Inhibition Rate at 0.5 µM (%); for inhibition at 2 µM: read-out: Inhibition Rate at 2 µM (%)
T6 construct: purchased CISBIO 64BDCRBNPEH
T6 sequence (Q96SW2 whole entry): as the sequence (Q96SW2 whole entry) above

[2] = tested on: Human monocytic leukemia cell line: THP-1; test: Tumor cell proliferation inhibition (CellTiter-Meiluncell luminescent cell viability assay); conditions: THP-1, 96 h; for inhibition at 0.01 µM: read-out: Inhibition Rate at 10 nM (%); for inhibition at 0.5 µM: read-out: Inhibition Rate at 500 nM (%)
[3] = tested on: Human colon cancer cell line: SW620; test: as above; conditions: SW-620, 96 h; for inhibition at 0.01 µM: read-out: Inhibition Rate at 10 nM (%); for inhibition at 0.5 µM: read-out: Inhibition Rate at 500 nM (%)
Experimental: (§1) The tumor cells used herein were cultured in a cell culture medium listed in table 2 at 37°C in an incubator with 5% CO2. Prior to experimentation, all cell lines used were correctly identified by STR profiling, and tested negative for mycoplasma contamination using a mycoplasma detection kit through routine screenings.
(§2) The IC50 values of the compounds of the present disclosure (including the compounds in Table 1 and Examples) were determined using the CellTiter-Meiluncell Luminescent Cell Viability Assay Kit from Dalian Meilun Biotech Co., Ltd. The detailed procedure is as follows: Tumor cells were seeded in 96-well cell culture plates at the densities specified in Table 3. On the following day, the test compounds of the present disclosure were subjected to serial dilution. The dilution can be performed according to one of the following two methods: • (1) The first dilution method: The test compounds of the present disclosure (including the compounds in Table 1 and Examples) were subjected to 5-fold serial dilutions starting from a highest concentration of 2000 µM, resulting in a total of 9 concentrations from high to low (2000, 400, 80, 16, 3.2, 0.64, 0.128, 0.0256, 0.00512 µM). Subsequently, 0.5 µL of the test compound dilution was transferred into the 96-well plate containing the cells, with each well containing 100 µL of cell culture medium. […] Into the 96-well plate, the diluted test compounds and corresponding detection reagents were added, resulting in final test compound concentrations of 500 nM and 10 nM, respectively. The experimental procedure is described below using the diluted 2 µM test compound as an example.
(§3) 0.5 µL of the aforementioned diluted compound of the present disclosure (including the compounds in Table 1 and Examples) was added to the seeded cells in 100 µL of medium, yielding a final test compound concentration of 10 nM. After the cells were treated with the compounds of the present disclosure for a specified period, the cell viability assay reagent was added to the culture medium according to the kit's instructions to determine cell viability. […] All controls were treated using the same procedure as the compounds of the present disclosure. The growth inhibition curves for the compounds of the present disclosure were plotted using Prism GraphPad software, and the IC50 values were calculated therefrom.

[4] = tested on: Human malignant melanoma cell line: A375; test: as above; conditions: A-375, 96 h; for inhibition at 0.01 µM: read-out: Inhibition Rate at 10 nM (%); for inhibition at 0.5 µM: read-out: Inhibition Rate at 500 nM (%)
Experimental: as §1, §2, §3

[5] = tested on: Human multiple myeloma cell (MM.1S); test: as above; conditions: Homo sapiens, MM1.S, 96 h; for inhibition at 0.01 µM: read-out: Inhibition Rate at 10 nM (%); for inhibition at 0.5 µM: read-out: Inhibition Rate at 500 nM (%)
[6] = tested on: Human multiple myeloma peripheral blood B lymphocyte cell (RPMI-8226); test: as above; conditions: RPMI-8226, 96 h; for inhibition at 0.01 µM: read-out: Inhibition Rate at 10 nM (%); for inhibition at 0.5 µM: read-out: Inhibition Rate at 500 nM (%)
Experimental: as §1, §2, §3

[7] = tested on: Human acute T lymphocytic leukemia cell (Molt4); test: as above; conditions: MOLT-4, 96 h; for inhibition at 0.01 µM: read-out: Inhibition Rate at 10 nM (%); for inhibition at 0.5 µM: read-out: Inhibition Rate at 500 nM (%)
[8] = tested on: Human myeloid monocytic leukemia cell (MV-4-11); test: as above; conditions: MV4-11, 96 h; for inhibition at 0.01 µM: read-out: Inhibition Rate at 10 nM (%); for inhibition at 0.5 µM: read-out: Inhibition Rate at 500 nM (%)
[9] = tested on: Human breast cancer cell (MCF-7); test: as above; conditions: MCF7, 96 h; for inhibition at 0.5 µM: read-out: Inhibition Rate at 500 nM (%); for inhibition at 0.01 µM: read-out: Inhibition Rate at 10 nM (%)
[10] = tested on: Human T cell acute lymphoblastic leukemia cell (CCRF-CEM); test: as above; conditions: 96 h; for inhibition at 0.01 µM: read-out: Inhibition Rate at 10 nM (%); for inhibition at 0.5 µM: read-out: Inhibition Rate at 500 nM (%)
[11] = tested on: Human acute myeloid leukemia cell line: Kasumi-1; test: as above; conditions: Kasumi 1, 96 h; for inhibition at 0.01 µM: read-out: Inhibition Rate at 10 nM (%); for inhibition at 0.5 µM: read-out: Inhibition Rate at 500 nM (%)
[12] = tested on: Human T lymphocytic leukemia cell line: Jurkat; test: as above; conditions: 96 h; for inhibition at 0.01 µM: read-out: Inhibition Rate at 10 nM (%); for inhibition at 0.5 µM: read-out: Inhibition Rate at 500 nM (%)
[13] = 24 hours treatment, compounds at 50 nM and 500 nM (concentration behind the class not stated)
[14] = Western blot, 24 hours of compound treatment, compounds tested at 50 nM and 500 nM (concentration for the table not stated)

T1 sequence (P48729 whole entry): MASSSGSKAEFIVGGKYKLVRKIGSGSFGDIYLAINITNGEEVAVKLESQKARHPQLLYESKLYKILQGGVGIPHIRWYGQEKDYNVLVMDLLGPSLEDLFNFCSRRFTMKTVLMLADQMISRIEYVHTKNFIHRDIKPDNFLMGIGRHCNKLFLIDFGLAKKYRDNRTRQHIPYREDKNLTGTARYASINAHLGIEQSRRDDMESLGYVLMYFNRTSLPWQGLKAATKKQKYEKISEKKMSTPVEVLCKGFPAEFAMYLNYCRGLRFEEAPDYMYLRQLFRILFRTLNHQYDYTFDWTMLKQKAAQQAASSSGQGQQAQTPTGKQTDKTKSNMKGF
T1 sequence (Q96SW2 whole entry): as the sequence (Q96SW2 whole entry) above
T1 sequence (Q16531 whole entry partner): as the sequence (Q16531 whole entry partner) above

SMILES	CK1α substrate protein remaining % (CK1α; [13])	IKZF 1 substrate protein remaining % (IKZF1; [13])	IKZF2 substrate protein remaining % (IKZF2; [13])	IKZF3 substrate protein remaining % (IKZF3; [13])	Wee1 substrate protein remaining % (WEE1; [13])	GSPT1 substrate protein remaining % (GSPT1; [13])	inhibition at 0.5 µM [1]	inhibition at 2 µM [1]	inhibition at 0.01 µM [4]	inhibition at 0.5 µM [4]	inhibition at 0.01 µM [5]	inhibition at 0.5 µM [5]	inhibition at 0.01 µM [6]	inhibition at 0.5 µM [6]	inhibition at 0.01 µM [7]	inhibition at 0.5 µM [7]	inhibition at 0.01 µM [8]	inhibition at 0.5 µM [8]	inhibition at 0.5 µM [9]	inhibition at 0.01 µM [10]	also measured
O=C1CCC(N2Cc3cc(CN4CC=C(c5ncnc6sc7c(c56)CCC7)CC4)ccc3C2=S)C(=O)N1 (stereo not drawn) [GT-09325, 3-(5-((4-(6,7-dihydro-5H-cyclopenta[4,5]thieno[2,3-d]pyrimidin-4-yl)-3,6-dihydropyridin-1(2H)-yl)methyl)-1-thioxoisoindolin-2-yl)piperidine-2,6-dione]	B (80%< substrate protein remaining %≤ 100%)	B (80%< substrate protein remaining %≤ 100%)	B (80%< substrate protein remaining %≤ 100%)	B (80%< substrate protein remaining %≤ 100%)	A (0% ≤ substrate protein remaining % ≤ 80%)	A (0% ≤ substrate protein remaining % ≤ 80%)	60 to 80%	80 to 100%	20 to 30%	80 to 100%	–	–	–	–	–	–	–	–	–	–	inhibition at 0.01 µM [2]: 5 to 10%; inhibition at 0.5 µM [2]: 80 to 100%; inhibition at 0.01 µM [3]: -15 to -5%; inhibition at 0.5 µM [3]: 80 to 100%
Cc1cc2c(C3=CCN(Cc4ccc5c(c4)CN(C4CCC(=O)NC4=O)C5=S)CC3)ncnc2s1 (stereo not drawn) [GT-09316, 3-(5-((4-(6-methylthieno[2,3-d]pyrimidin-4-yl)-3,6-dihydropyridin-1(2H)-yl)methyl)-1-thioxoisoindolin-2-yl)piperidine-2,6-dione]	B (80%< substrate protein remaining %≤ 100%)	A (0% ≤ substrate protein remaining % ≤ 80%)	B (80%< substrate protein remaining %≤ 100%)	A (0% ≤ substrate protein remaining % ≤ 80%)	B (80%< substrate protein remaining %≤ 100%)	A (0% ≤ substrate protein remaining % ≤ 80%)	60 to 80%	80 to 100%	30 to 40%	80 to 100%	–	–	–	–	–	–	–	–	–	–	inhibition at 0.01 µM [2]: 5 to 10%; inhibition at 0.5 µM [2]: 80 to 100%; inhibition at 0.01 µM [3]: 10 to 20%; inhibition at 0.5 µM [3]: 80 to 100%
O=C1CCC(N2Cc3cc(CN4CCC(N(c5ccccc5)c5ccccn5)CC4)ccc3C2=S)C(=O)N1 (stereo not drawn) [GT-07846, 3-(5-((4-(phenyl(pyridin-2-yl)amino)piperidin-1-yl)methyl)-1-thioxoisoindolin-2-yl)piperidine-2,6-dione]	–	–	–	–	–	–	53 to 60%	80 to 100%	–	–	60 to 70%	80 to 100%	20 to 30%	60 to 70%	70 to 80%	80 to 100%	10 to 18%	80 to 100%	40 to 50%	40 to 50%	CK1α substrate protein remaining % (CK1α; [14]): B (80%< substrate protein remaining %≤ 100%); IKZF 1 substrate protein remaining % (IKZF1; [14]): A (0% ≤ substrate protein remaining % ≤ 80%); IKZF2 substrate protein remaining % (IKZF2; [14]): A (0% ≤ substrate protein remaining % ≤ 80%); IKZF3 substrate protein remaining % (IKZF3; [14]): A (0% ≤ substrate protein remaining % ≤ 80%); Wee1 substrate protein remaining % (WEE1; [14]): A (0% ≤ substrate protein remaining % ≤ 80%); GSPT1 substrate protein remaining % (GSPT1; [14]): A (0% ≤ substrate protein remaining % ≤ 80%); inhibition at 0.5 µM [10]: 80 to 100%; inhibition at 0.01 µM [11]: 40 to 50%; inhibition at 0.5 µM [11]: 80 to 100%; inhibition at 0.01 µM [12]: 30 to 40%; inhibition at 0.5 µM [12]: 80 to 100%
O=C1CCC(N2Cc3cc(CN4CCN(c5nc(Cl)nc6ccsc56)CC4)ccc3C2=S)C(=O)N1 (stereo not drawn) [GT-09331, 3-(5-((4-(2-chlorothieno[3,2-d]pyrimidin-4-yl)piperazin-1-yl)methyl)-1-thioxoisoindolin-2-yl)piperidine-2,6-dione]	B (80%< substrate protein remaining %≤ 100%)	B (80%< substrate protein remaining %≤ 100%)	B (80%< substrate protein remaining %≤ 100%)	B (80%< substrate protein remaining %≤ 100%)	B (80%< substrate protein remaining %≤ 100%)	A (0% ≤ substrate protein remaining % ≤ 80%)	80 to 100%	80 to 100%	30 to 40%	50 to 60%	–	–	–	–	–	–	–	–	40 to 50%	–	inhibition at 0.01 µM [9]: 20 to 30%
O=C1CCC(N2Cc3cc(CN4CC=C(c5cccs5)CC4)ccc3C2=S)C(=O)N1 (stereo not drawn) [GT-08171, 3-(5-((4-(thiophen-2-yl)-3,6-dihydropyridin-1(2H)-yl)methyl)-1-thioxoisoindolin-2-yl)piperidine-2,6-dione]	A (0% ≤ substrate protein remaining % ≤ 80%)	A (0% ≤ substrate protein remaining % ≤ 80%)	A (0% ≤ substrate protein remaining % ≤ 80%)	A (0% ≤ substrate protein remaining % ≤ 80%)	A (0% ≤ substrate protein remaining % ≤ 80%)	A (0% ≤ substrate protein remaining % ≤ 80%)	60 to 80%	80 to 100%	–	–	50 to 60%	80 to 100%	20 to 30%	80 to 100%	80 to 100%	80 to 100%	60 to 80%	80 to 100%	70 to 80%	70 to 80%	inhibition at 0.01 µM [9]: 20 to 30%; inhibition at 0.5 µM [10]: 80 to 100%; inhibition at 0.01 µM [11]: 30 to 40%; inhibition at 0.5 µM [11]: 80 to 100%; inhibition at 0.01 µM [12]: 40 to 50%; inhibition at 0.5 µM [12]: 80 to 100%
O=C1CCC(N2Cc3cc(CN4CC=C(c5cccc(F)c5Cl)CC4)ccc3C2=S)C(=O)N1 (stereo not drawn) [GT-08206, 3-(5-((4-(2-chloro-3-fluorophenyl)-3,6-dihydropyridin-1(2H)-yl)methyl)-1-thioxoisoindolin-2-yl)piperidine-2,6-dione]	–	–	–	–	–	–	40 to 53%	80 to 100%	–	–	50 to 60%	80 to 100%	80 to 100%	80 to 100%	70 to 80%	80 to 100%	80 to 100%	80 to 100%	80 to 100%	80 to 100%	CK1α substrate protein remaining % (CK1α; [14]): A (0% ≤ substrate protein remaining % ≤ 80%); IKZF 1 substrate protein remaining % (IKZF1; [14]): A (0% ≤ substrate protein remaining % ≤ 80%); IKZF2 substrate protein remaining % (IKZF2; [14]): A (0% ≤ substrate protein remaining % ≤ 80%); IKZF3 substrate protein remaining % (IKZF3; [14]): A (0% ≤ substrate protein remaining % ≤ 80%); Wee1 substrate protein remaining % (WEE1; [14]): A (0% ≤ substrate protein remaining % ≤ 80%); GSPT1 substrate protein remaining % (GSPT1; [14]): A (0% ≤ substrate protein remaining % ≤ 80%); inhibition at 0.01 µM [9]: 0 to 5%; inhibition at 0.5 µM [10]: 80 to 100%; inhibition at 0.01 µM [11]: 60 to 70%; inhibition at 0.5 µM [11]: 80 to 100%; inhibition at 0.01 µM [12]: 50 to 60%; inhibition at 0.5 µM [12]: 80 to 100%
